Measured values: patent US8772237B2, “Compositions and methods for counteracting effects of reactive oxygen species and free radicals” (Ischemix, Inc., priority 1999, dated 2014)
Ends that are not written are not given here.

What was measured:
Assay type in all cases: cell-based
[1] = test system: superoxide dismutase-1 (SOD-1) mRNA; experiment: RT-PCR upregulation of SOD-1 mRNA in rat primary cortical cell cultures; settings: 100 ng/ml
Protocol: The RT-PCR method (see, for example, Innis et al., PCR Protocols: A Guide to Methods and Applications, (Academic Press, San Diego, 1990)) was used to investigate the upregulation of the specific mRNA that codes for the enzyme superoxide dismutase (SOD).
(§1) Primary cortical cultures were obtained by growing newborn rat brain cortical cells in Delbecco's modified Eagle medium supplemented with 25 μg/ml of gentamycin and 10% fetal calf serum. The cells were isolated from the E-21 cortex of rat brain, plated at a density of 1×10^5 per ml and grown to confluence within four to five days in an atmosphere containing air and 5% CO2 at 37° C. as described in Cornell-Bell et al., Science, 247: 470-473 (1990) and Cell Calcium, 12: 185-204 (1991). Cultures were grown in 20 ml flasks as a monolayer and then exposed to various concentrations of peptides for studies of the effects of peptides on upregulation of genes for SOD and CAT and on the transmigration of transcription factor AP-1 to cell nuclei.
(§2) Primary cultures of rat brain cortical cells were incubated with 100 ng/ml of peptide compound CMX-9236 for durations of 0 to 48 hours. mRNA was isolated from the cytoplasmic fraction of lysed cells according to standard methods (Angel et al., Cell 49:729-739, 1987). The RNA was incubated according to the RT-PCR protocol with two strands, 20 nucleotides long, one for the sense and one from the antisense strand. The sequences were selected to be unique for superoxide dismutase-1 (SOD-1), and to span one intron segment. […] The sequence of the two probe segments of the oligo dT segments for SOD are as follows: anti-sense strand, […] (SEQ ID NO:29), and sense strand, […] (SEQ ID NO:30). These span a sequence of 208 base pairs (bp) on the primary SOD sequence. The mixture was then treated with reverse transcriptase to obtain the cDNA according to standard PCR methods. The cDNA was then analyzed by electrophoresis and separated according to sequence lengths on a non-denaturing 5% polyacrylamide gel. The electrophoretically separated molecules were treated with ethidium bromide to stain double-stranded DNA fragments. These were visualized by ultraviolet illumination and photographed. The gels were then analyzed by a laser scanning fluorescence detector to quantitate the amount of messenger RNA for the extent of upregulation of SOD message and its time course of synthesis as a function of stimulation by CMX-9236. Similar methods of analysis were used for other peptides.

SOD-1 mRNA = experiment: RT-PCR upregulation of SOD-1 mRNA in rat primary myocyte cultures; settings: rat primary myocytes, 3-hour incubation
Protocol: as §2, with “These were visualized by ultraviolet illumination and photographed.” left out, “Similar methods of analysis were used for other peptides.” left out

[2] = test system: superoxide dismutase (SOD) protein; experiment: Western immunoblot of SOD protein in rat brain primary cortical cultures; settings: Dose 6.7 pmol/ml, 5 hours at 37° C.
Protocol: as §1, with “nuclei. […]” for “nuclei.”
Tissue culture experiments were carried out using primary cultures of rat brain cortical cells as previously described above in Example 2. Primary cultures from embryonic rat brain isolated at E-21 (21 day embryos) and incubated for five hours with various doses: 1, 10, 100 ng/ml of CMX-99672. Cytoplasmic proteins were isolated and analyzed for upregulation of SOD and CAT by Western immunoblots as described above. […] The Western blot was scanned to quantify the fold-increase in SOD production in cell cultures treated with the CMX-99672 peptide compound.
Representative peptide compounds were tested at various doses and compared for their ability to upregulate expression of genes for SOD and/or CAT in rat primary cortical cultures basically as described above. Cultures were incubated with a peptide compound for 5 hours at 37° C. Cytoplasmic protein fractions were prepared as described above. Cytoplasmic proteins were separated by gel electrophoresis and analyzed by Western immunoblots using antisera to SOD and CAT, respectively (Rockland, Inc., Gilbertsville, Pa.). […]

## KKDGDGDFAIDAPE [CMX-9236, uncapped peptide]
[1]
  time until SOD-1 mRNA stimulation returns to control levels: ≤ 24 h
[1]; rat primary cortical cells, 3 hours incubation
  upregulation of SOD-1 mRNA transcripts: 9 fold
SOD-1 mRNA; 1 ng/ml
  upregulation of SOD mRNA: 3 fold
SOD-1 mRNA; 10-100 ng/ml
  upregulation of SOD-1 mRNA transcripts: about 6 fold
[2]
  SOD: 466 % Control
